What is called IC50 is the midpoint of a concentration-inhibition curve. For orientation: Ki means the dissociation constant of the complex between target and ligand, obtained from inhibition or displacement.

The structures appear in SMILES notation. Bounds are passed on as bounds.

Experiment [1] has as its target T1, Hexokinase-2 (Homo sapiens, UniProt P52789).
T1 sequence (P52789 whole entry): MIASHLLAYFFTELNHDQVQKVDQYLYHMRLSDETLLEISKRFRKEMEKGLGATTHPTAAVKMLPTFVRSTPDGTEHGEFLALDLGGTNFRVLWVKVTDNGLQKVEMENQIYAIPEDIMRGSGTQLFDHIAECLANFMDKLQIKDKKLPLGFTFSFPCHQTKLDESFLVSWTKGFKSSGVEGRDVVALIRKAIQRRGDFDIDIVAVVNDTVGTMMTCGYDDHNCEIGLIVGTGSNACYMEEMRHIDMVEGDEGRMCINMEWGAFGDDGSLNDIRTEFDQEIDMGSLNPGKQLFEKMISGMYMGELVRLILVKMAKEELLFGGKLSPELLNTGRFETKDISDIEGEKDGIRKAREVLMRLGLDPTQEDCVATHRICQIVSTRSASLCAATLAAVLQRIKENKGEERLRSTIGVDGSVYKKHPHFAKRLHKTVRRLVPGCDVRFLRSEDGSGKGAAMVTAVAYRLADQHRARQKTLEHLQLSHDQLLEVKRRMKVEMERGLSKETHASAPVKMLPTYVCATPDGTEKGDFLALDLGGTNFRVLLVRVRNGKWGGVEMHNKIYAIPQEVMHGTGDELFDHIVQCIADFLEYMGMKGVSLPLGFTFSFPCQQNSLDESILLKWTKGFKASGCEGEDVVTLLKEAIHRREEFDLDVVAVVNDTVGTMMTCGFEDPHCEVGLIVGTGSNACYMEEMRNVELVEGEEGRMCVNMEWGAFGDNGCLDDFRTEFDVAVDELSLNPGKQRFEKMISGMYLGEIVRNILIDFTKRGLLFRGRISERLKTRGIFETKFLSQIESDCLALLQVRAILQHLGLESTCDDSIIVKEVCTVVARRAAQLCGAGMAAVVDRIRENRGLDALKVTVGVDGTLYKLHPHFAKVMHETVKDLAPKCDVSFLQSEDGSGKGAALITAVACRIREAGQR
Kind of experiment: Inhibition of His-tagged human HK2 (17 to 916 residues) expressed in Escherichia coli BL21(DE3) using glucose as substrate after 45 mins by ADP-glo assay in presence of MgATP.

A further experiment concerns the target T2, Hexokinase-1 (Homo sapiens, UniProt P19367).
T2 sequence (P19367 whole entry): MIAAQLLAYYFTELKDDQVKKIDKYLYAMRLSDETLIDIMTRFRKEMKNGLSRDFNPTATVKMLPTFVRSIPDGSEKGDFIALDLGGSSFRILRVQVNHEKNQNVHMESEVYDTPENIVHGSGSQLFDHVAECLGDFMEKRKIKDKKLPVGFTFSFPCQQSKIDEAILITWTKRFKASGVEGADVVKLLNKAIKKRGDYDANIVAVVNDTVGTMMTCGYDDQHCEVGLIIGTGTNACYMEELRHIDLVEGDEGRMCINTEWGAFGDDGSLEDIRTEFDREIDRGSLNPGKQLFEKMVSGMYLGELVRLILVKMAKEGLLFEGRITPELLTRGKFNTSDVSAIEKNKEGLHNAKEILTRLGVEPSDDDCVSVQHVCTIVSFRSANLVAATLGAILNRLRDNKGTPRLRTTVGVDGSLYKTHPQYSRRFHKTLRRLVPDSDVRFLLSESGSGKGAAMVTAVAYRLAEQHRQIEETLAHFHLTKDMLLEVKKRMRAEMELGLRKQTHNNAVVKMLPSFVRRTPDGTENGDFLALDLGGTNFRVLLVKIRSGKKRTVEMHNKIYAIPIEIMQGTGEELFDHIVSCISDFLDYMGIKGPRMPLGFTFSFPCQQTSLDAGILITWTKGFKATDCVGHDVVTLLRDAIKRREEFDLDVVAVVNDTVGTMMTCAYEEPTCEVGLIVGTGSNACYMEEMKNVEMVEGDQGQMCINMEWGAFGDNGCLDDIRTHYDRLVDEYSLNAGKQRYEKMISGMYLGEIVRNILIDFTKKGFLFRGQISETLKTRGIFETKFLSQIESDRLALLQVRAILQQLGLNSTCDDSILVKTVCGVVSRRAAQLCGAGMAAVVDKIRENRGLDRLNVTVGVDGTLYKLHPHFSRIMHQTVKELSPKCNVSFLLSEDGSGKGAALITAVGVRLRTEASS
Kind of experiment: Inhibition of His-tagged human HK1 (11 to 917 residues) expressed in Escherichia coli BL21(DE3) using glucose as substrate after 45 mins by ADP-glo assay in presence of MgATP. In general terms: In ADP-Glo the light output rises with the ADP produced.

The target of experiment [2] is T1, Hexokinase-2. Description: Inhibition of HK2 in human UM-UC-3 cells using 2FDG as substrate assessed as suppression of G6P production preincubated for 30 mins followed by substrate treatment for 90 mins by resazurin assay. It is filed as cell-based, UMUC3. For orientation: Resazurin is reduced to fluorescent resorufin, in cell work by metabolically active cells.

Experiment [3] deals with T1, Hexokinase-2. Description: Competitive inhibition of His-tagged human HK2 (17 to 916 residues) expressed in Escherichia coli BL21(DE3) assessed as formation of G6P by continuous G6P dehydrogenase coupled assay in presence of glucose.
The target in the next experiment is T3, Hexokinase-4 (Homo sapiens, UniProt P35557).
T3 sequence (P35557 whole entry): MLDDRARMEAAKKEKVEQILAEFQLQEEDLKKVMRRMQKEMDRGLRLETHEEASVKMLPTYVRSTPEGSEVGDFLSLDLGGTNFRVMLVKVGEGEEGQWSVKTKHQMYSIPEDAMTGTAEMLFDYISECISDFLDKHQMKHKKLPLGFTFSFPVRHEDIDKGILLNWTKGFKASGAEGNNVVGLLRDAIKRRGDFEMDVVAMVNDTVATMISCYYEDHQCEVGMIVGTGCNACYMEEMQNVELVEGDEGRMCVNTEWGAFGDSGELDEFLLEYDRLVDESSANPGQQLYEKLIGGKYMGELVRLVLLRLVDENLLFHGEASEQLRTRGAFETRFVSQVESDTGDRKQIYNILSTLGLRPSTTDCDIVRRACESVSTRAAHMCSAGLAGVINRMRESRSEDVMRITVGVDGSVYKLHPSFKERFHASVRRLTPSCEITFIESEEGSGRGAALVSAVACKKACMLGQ
Kind of experiment: Inhibition of HK4 (unknown origin).

On to `COc1cc(C(=O)N[C@H]2C(O)O[C@H](CNS(=O)(=O)c3cccc(Cl)c3Cl)[C@@H](O)[C@@H]2O)cc(-c2ccc(C#N)cc2)c1` (stereo not given in full), for which the values for the IC50 on Hexokinase-2 [1] and on Hexokinase-1 were 25 nM and 7.9 nM, respectively.

Consider `O=[N+]([O-])c1cccc(S(=O)(=O)N[C@H]2C(O)O[C@H](CNS(=O)(=O)c3cccc(Cl)c3Cl)[C@@H](O)[C@@H]2O)c1` (stereo not given in full), for which the IC50 worked out at 130 nM at Hexokinase-2 [1] and 10000 nM on Hexokinase-1.

`O=C(C=C1CCC(C(F)(F)F)CC1)N[C@H]1C(O)O[C@H](CO)[C@@H](O)[C@@H]1O` (stereo not given in full): the IC50 at Hexokinase-2 [1] worked out at 16000 nM; on Hexokinase-1, 160000 nM.

For `N#Cc1ccc(-c2cc(C(=O)N[C@H]3C(O)O[C@H](CO)[C@@H](O)[C@@H]3O)cc(C(F)(F)F)c2)cc1` (stereo not given in full), the IC50 stood at 790 nM on Hexokinase-2 [1] and 40 nM on Hexokinase-1.

`O=C(N[C@H]1C(O)O[C@H](CNS(=O)(=O)c2ccccc2Cl)[C@@H](O)[C@@H]1O)c1cccc(-c2ccccc2)c1` (stereo not given in full): the IC50 at Hexokinase-2 [1] stood at 100 nM; at Hexokinase-1, 16 nM.

Regarding `Cc1oc(S(=O)(=O)NC[C@H]2OC(O)[C@H](NC(=O)c3cccc(Br)c3)[C@@H](O)[C@@H]2O)cc1C(=O)O` (stereo not given in full), the IC50 at Hexokinase-2 [1] is 10 nM; on Hexokinase-1, 20 nM.

With `O=C(N[C@H]1C(O)O[C@H](CNS(=O)(=O)c2cnccc2Cl)[C@@H](O)[C@@H]1O)c1cccc(-c2ccccc2)c1` (stereo not given in full), the IC50 amounted to 100 nM on Hexokinase-2 [1] and 20 nM at Hexokinase-1.

In the case of `O=S(=O)(N[C@H]1C(O)O[C@H](CNS(=O)(=O)c2cccc(Cl)c2Cl)[C@@H](O)[C@@H]1O)c1ccc(Cl)s1` (stereo not given in full), the IC50 at Hexokinase-2 [1] is 130 nM; on Hexokinase-1, 63000 nM; at Hexokinase-2 [2], 520 nM.

As for `O=C(N[C@H]1C(O)O[C@H](CO)[C@@H](O)[C@@H]1O)c1cccc(-c2ccccc2)c1` (stereo not given in full), the IC50 was determined as 3200 nM on Hexokinase-2 [1] and 790 nM at Hexokinase-1.

For the molecule `O=C(N[C@H]1C(O)O[C@H](CNS(=O)(=O)c2cccc(Cl)c2)[C@@H](O)[C@@H]1O)c1cccc(-c2ccccc2)c1` (stereo not given in full), the values for the IC50 at Hexokinase-2 [1] and at Hexokinase-1 were 320 nM and 160 nM, respectively.

`O=S(=O)(N[C@H]1C(O)O[C@H](CNS(=O)(=O)c2cccc(Cl)c2Cl)[C@@H](O)[C@@H]1O)c1cccc(-c2ccccc2)c1` (stereo not given in full): the values for the IC50 on Hexokinase-2 [1], at Hexokinase-1 and on Hexokinase-2 [2] were 25 nM, 5000 nM and 470 nM, respectively.

Turning to `O=C(/C=C/c1ccc(Cl)c(Cl)c1)N[C@H]1C(O)O[C@H](CO)[C@@H](O)[C@@H]1O` (stereo not given in full), the IC50 was 6300 nM at Hexokinase-2 [1] and 2000 nM at Hexokinase-1. For the same molecule, the Ki at Hexokinase-2 [3] amounted to 2900 nM.

Consider `O=C(O)c1cccc(S(=O)(=O)NC[C@H]2OC(O)[C@H](NC(=O)c3cccc(-c4ccccc4)c3)[C@@H](O)[C@@H]2O)c1` (stereo not given in full), for which the IC50 was 50 nM on Hexokinase-2 [1] and 25 nM at Hexokinase-1.

As to `O=C(/C=C/c1ccc(Cl)c(Cl)c1)N[C@H]1CO[C@H](CO)[C@@H](O)[C@@H]1O`, the figures for the half-maximal inhibitory concentration (IC50) at Hexokinase-2 [1] and on Hexokinase-1 were greater than 400000 nM and greater than 200000 nM, respectively.

In the case of `O=C(N[C@H]1C(O)O[C@H](CNS(=O)(=O)c2ccccc2)[C@@H](O)[C@@H]1O)c1cccc(-c2ccccc2)c1` (stereo not given in full), the results for the IC50 at Hexokinase-2 [1] and at Hexokinase-1 were 790 nM and 160 nM, respectively.

In the case of `O=C(N[C@H]1C(O)O[C@H](CO)[C@@H](O)[C@@H]1O)c1cc([N+](=O)[O-])cc([N+](=O)[O-])c1` (stereo not given in full), the IC50 at Hexokinase-2 [1] and on Hexokinase-1 was 2000 nM in each case.

For `COC1O[C@H](CO)[C@@H](O)[C@H](O)[C@H]1NC(=O)/C=C/c1ccc(Cl)c(Cl)c1` (stereo not given in full), the IC50 at Hexokinase-2 [1] was greater than 400000 nM; at Hexokinase-1 it was greater than 200000 nM.

As for `O=C(N[C@H]1C(O)O[C@H](CNS(=O)(=O)c2cccc(Cl)c2Cl)[C@@H](O)[C@@H]1O)c1cccc(-c2ccccc2)c1` (stereo not given in full), the IC50 turned out to be 25 nM at Hexokinase-2 [1], 3500 nM against Hexokinase-4, 32 nM on Hexokinase-1 and 200 nM on Hexokinase-2 [2].

Consider `COC(=O)c1cc(S(=O)(=O)NC[C@H]2OC(O)[C@H](NC(=O)c3cccc(Br)c3)[C@@H](O)[C@@H]2O)oc1C` (stereo not given in full), for which the IC50 at Hexokinase-2 [1] came out at 630 nM; at Hexokinase-1, 1600 nM.

On to `N#Cc1ccc(S(=O)(=O)NC[C@H]2OC(O)[C@H](NC(=O)c3cccc(-c4ccccc4)c3)[C@@H](O)[C@@H]2O)cc1` (stereo not given in full), for which the IC50 stood at 130 nM at Hexokinase-2 [1] and 7.9 nM at Hexokinase-1.

On to `O=S(=O)(N[C@H]1C(O)O[C@H](CNS(=O)(=O)c2cccc(Cl)c2Cl)[C@@H](O)[C@@H]1O)c1ccc(Cl)c(Cl)c1` (stereo not given in full), for which the values for the IC50 on Hexokinase-2 [1] and at Hexokinase-1 were 50 nM and greater than 20000 nM, respectively.

With `O=S(=O)(N[C@H]1C(O)O[C@H](CNS(=O)(=O)c2cccc(Cl)c2Cl)[C@@H](O)[C@@H]1O)c1cccc(-c2ccc(Cl)cc2)c1` (stereo not given in full), the IC50 on Hexokinase-2 [1] was found to be 7.9 nM; at Hexokinase-1, 1000 nM.

Turning to `O=C(N[C@H]1C(O)O[C@H](CNS(=O)(=O)c2cccc(Cl)c2Cl)[C@@H](O)[C@@H]1O)c1ccc(Cl)s1` (stereo not given in full), the IC50 amounted to 40 nM at Hexokinase-2 [1] and 2000 nM on Hexokinase-1.

As for `O=C(N[C@H]1C(O)O[C@H](CO)[C@@H](O)[C@@H]1O)c1ccc(-c2ccccc2)cc1` (stereo not given in full), the IC50 on Hexokinase-2 [1] came to 16000 nM; on Hexokinase-1, 13000 nM.

In the case of `Cc1ccc(S(=O)(=O)NC[C@H]2OC(O)[C@H](NC(=O)/C=C/c3ccc(Cl)c(Cl)c3)[C@@H](O)[C@@H]2O)cc1` (stereo not given in full), the IC50 on Hexokinase-2 [1] and on Hexokinase-1 was 2000 nM in each case.

(Values after ChEMBL document CHEMBL3804808, “Discovery of a Novel 2,6-Disubstituted Glucosamine Series of Potent and Selective Hexokinase 2 Inhibitors” (ACS Med Chem Lett, 2016).)
